Measurements published in patent US6969712B2, “Benzimidazole derivatives” (Banyu Pharmaceutical Co., Ltd., priority 2000, dated 2005).
Counter-ions that a name gives are not always drawn.

How the values were obtained:
[1] = molecular target: T1, nociceptin receptor ORL1 (Homo sapiens, UniProt P41146); test: Nociceptin receptor binding inhibition assay; conditions: inhibition of 50 pM [125I]Tyr14-Nociceptin binding to CHO/ORL1 cell membrane, SPA beads, 37° C., 60 minutes; read-out: IC50 value, nociceptin receptor binding inhibition action
T1 construct: expressed in transfected cells
Method: cDNA which codes a human nociceptin receptor gene (accession No.X77130) was cloned into an expression vector pCR3 (Invitrogen) to prepare pCR3/ORL1. Next, pCR3/ORL1 was transfected in CHO cells using a transfectam (Nippongene) following the directions in the manual appended to the reagent to obtain a stable expression strain (CHO/ORL1 cells) having resistance against 1 mg/ml concentration G418. A membrane fraction (a precipitate fraction obtained by an hour's centrifuge at 100,000 G of the supernatant resulting from 15 minutes' certrifuge at 10,000 G) was prepared from this stable expression strain to carry out a receptor binding assay.
Eleven (11) μg of the membrane, 50 pM [^125I] Tyr^14-Nociceptin (Amersham Pharmacia Biotech) (specific activity 2000 Ci/mmol), 1 mg Wheatgerm agglutinin SPA beads (PVT based; Amersham Pharmacia Biotech) and a test compound were suspended in an NC buffer (50 mM Hepes, 10 mM sodium chloride, 1 mM magnesium chloride, 2.5 mM calcium chloride, 0.1% BSA, 0.025% bacitracin, pH 7.4) and incubated at 37° C. for 60 minutes, and then the radioactivity was determined with Top Count (Packard). The binding activity to the nociceptin receptor was expressed by the 50% inhibition concentration (IC50 value) which was calculated from the inhibition activity to binding to ORL1 receptor of [^125I] Tyr^14-Nociceptin by the compounds of the present invention at various concentrations.

[2] = molecular target: T1, nociceptin receptor ORL1; test: Antagonism against nociceptin-elicited G protein activation (GTPγ[35S] binding); type: biochemical; conditions: GTPγ[35S] binding inhibition, CHO/ORL1 cell membrane, 50 nM nociceptin, 25° C., 150 minutes
Method: CHO cells which stably expressed a nociceptin receptor ORL1 were used to investigate the action of tested compounds against nociceptin-elicited G protein activation. A membrane prepared from the CHO/ORL1 cell, 50 nM nociceptin, 200 pM GTPγ[^35S](NEN), 1.5 mg Wheatgerm agglutinin SPA beads (PVT based; Amersham Pharmacia Biotech) and each of the tested compounds were mixed in a GDP buffer (20 mM Hepes, 100 mM sodium chloride, 10 mM magnesium chloride, 1 mM EDTA, 5 μM GDP, pH 7.4) and incubated at 25° C. for 150 minutes, and then the radioactivity was determined. The antagonism against nociceptin-elicited G protein activation was shown by the 50% inhibition concentration (IC50 value) which was calculated from GTP γ [^35S] binding inhibition activity of the compounds of the present invention at various concentrations. From the result it can be understood that the compounds of the invention have antagonism against nociceptin-elicited G protein activation via ORL1 receptor.

T1 sequence (P41146 whole entry): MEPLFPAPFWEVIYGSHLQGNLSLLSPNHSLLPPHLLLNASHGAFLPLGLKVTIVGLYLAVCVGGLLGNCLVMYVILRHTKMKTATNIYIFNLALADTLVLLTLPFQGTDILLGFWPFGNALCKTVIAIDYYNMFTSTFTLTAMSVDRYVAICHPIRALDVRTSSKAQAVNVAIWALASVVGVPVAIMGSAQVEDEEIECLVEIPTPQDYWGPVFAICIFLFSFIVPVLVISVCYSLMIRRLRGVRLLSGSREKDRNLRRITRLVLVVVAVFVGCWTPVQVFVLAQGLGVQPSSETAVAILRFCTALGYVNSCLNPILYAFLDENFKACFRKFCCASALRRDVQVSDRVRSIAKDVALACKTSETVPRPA

SMILES	IC50 [1] [nM]	IC50 [2] [nM]
CCC(CC)Sc1nc2cc(Cl)c(N3CCNCC3)cc2[nH]1 [Example 1, 5-chloro-2-[(1-ethylpropyl)sulfanyl]-6-(piperazin-1-yl) benzimidazole dihydrochloride]	2.1	9.1
CC(CC(C)(C)C)Sc1nc2cc(N3CCNCC3)c(Cl)cc2[nH]1 (centres unmarked) [Example 26, 5-chloro-6-(piperazin-1-yl)-2-[(1,3,3-trimethylbutyl)-sulfanyl]benzimidazole dihydrochloride]	1.3	5.3
CCC(CC)Sc1nc2cc(Cl)c(N3CCN(CCO)CC3)cc2[nH]1 [Example 89, 5-chloro-2-[(1-ethylpropyl)sulfanyl]-6-[4-(2-hydroxyethyl)piperazin-1-yl]benzimidazole dihydrochloride]	6.5	6.8
CC(C)(CN1CCOCC1)Sc1nc2cc(N3CCN(CCO)CC3)c(Cl)cc2[nH]1 [Example 101, 5-chloro-2-[(1,1-dimethyl-2-morpholinoethyl)sulfanyl]-6-[4-(2-hydroxyethyl)piperazin-1-yl]benzimidazole trihydrochloride]	9.2	8
Clc1cc2[nH]c(SCC3CCCCC3)nc2cc1N1CCN(CC2CC2)CC1 [Example 102, 5-chloro-2-[(cyclohexylmethyl)sulfanyl]-6-[4-(cyclopropylmethyl)piperazin-1-yl]benzimidazole]	3.5	
CC1(Sc2nc3c(F)c(N4CCN(CCO)CC4)c(Cl)cc3[nH]2)CCCC1 [Example 142, 5-chloro-7-fluoro-6-[4-(2-hydroxyethyl)piperazin-1-yl]-2-[(1-methylcyclopentyl)sulfanyl]benzimidazole]	0.95	0.57
CCC(CC)COc1nc2cc(N3CCNCC3)c(Cl)cc2[nH]1 [Referential Example 1, 5-chloro-2-[(2-ethylbutyl)oxy]-6-(piperazin-1-yl)benzimidazole dihydrochloride]	7	180
CCCC(CC)Nc1nc2cc(N3CCNCC3)c(Cl)cc2[nH]1 (centres unmarked) [Referential Example 13, 5-chloro-2-[(1-ethylbutyl)amino]-6-(piperazin-1-yl)-benzimidazole dihydrochloride]	430	
